Data on 22 compounds can be found in patent US12679843B2, “Pyrrolopyrimidine amines as complement inhibitors” (BioCryst Pharmaceuticals, Inc., priority 2020, dated 2026).

Chain of Factor D (P00746 26-253): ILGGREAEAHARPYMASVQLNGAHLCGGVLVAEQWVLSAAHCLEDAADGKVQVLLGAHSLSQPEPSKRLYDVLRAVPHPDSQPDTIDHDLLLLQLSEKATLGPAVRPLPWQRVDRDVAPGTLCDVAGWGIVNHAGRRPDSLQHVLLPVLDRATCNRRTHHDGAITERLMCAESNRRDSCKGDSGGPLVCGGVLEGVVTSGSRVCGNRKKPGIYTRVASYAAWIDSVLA

This test has as its target Factor D (Homo sapiens, UniProt P00746). Nature of the test: Factor D esterolytic assay (Z-Lys-SBzl thioester substrate, DTNB, 405 nm). In kind it is biochemical. The settings on record: substrate Z-Lys-SBzl 1.29 mM, 100 mM HEPES, 500 mM NaCl, pH 7.5, 10% DMSO, tested a minimum of three times. As to the method: The IC50 value of a compound (i.e., the concentration of the compound that inhibits 50% of the enzymatic activity) was calculated according to the procedure reported in U.S. Pat. No. 6,653,340 B1, e.g., column 74 (incorporated by reference).
Specifically, the compounds were dissolved in a stock solution of DMSO at 10.0 or 100 mM. A portion of this stock solution was added to assay buffer in a final volume of 50 μL. Controls included buffer alone and enzyme solutions to which DMSO was added. Substrate was added to the reaction wells immediately or after incubation at room temperature. The reaction rates were measured spectrophotometrically by the generation of product at 405 nm for 600 sec. Background absorbance at 690 nm was measured and subtracted from the absorbance at 405 nm for each well.
The reaction rate for enzyme alone was compared to the rate of enzyme in the presence of inhibitor and the percent inhibition was calculated as shown below: Percent Inhibition=[Rate without inhibitor−Rate with inhibitor)/(Rate without inhibitor)]−100 Factor D Esterolytic Assay:
An established esterolytic assay for the measurement of Factor D activity and inhibition of Factor D activity was used (Kam, C. M.; McRae, B. J.; Harper, J. W.; Niemann, M. A.; Volanakis, J. E.; Powers, J. C. Human complement proteins D. C2, and B Active site mapping with peptide thioester substrates. J Biol. Chem. 1987, 262, 3444-3451). For this assay Z-Lys-SBzl, 1.29 mM (Kim, S.; Narayana, S. V. L; Volanakis, J. E. Mutational analysis of the substrate binding site of human complement Factor D. Biochemistry, 1994, 33, 14393-14399) was used as the substrate for Factor D ([…]). Hydrolysis of this compound by Factor D liberated a free sulfhydryl group which is then reacted with 5,5′-dithiobis(2-nitrobenzoic acid) producing an intense yellow color (Habeeb, A. F. S. A. Reaction of protein sulfhydryl groups with Ellman's Reagent. Methods in Enzymol. 1976, 25, 457-464). The assays were performed in 96 well microtiter plates and rates of hydrolysis were monitored at 405 nm on a Biotek Synergy H1 plate reader. Hydrolysis rates were reported as change in mOD/min. The assay was conducted in 100 mM HEPES, 500 mM NaCl, pH 7.5 containing 10% DMSO in a final volume of 50 μL per well.
An IC50, a compound concentration which inhibits 50% of the enzymatic activity, was calculated. Compounds in the examples were tested a minimum of three times.
On to `Nc1ncnn2c(CC(=O)N3C[C@H](F)C[C@H]3C(=O)Nc3cccc(Br)n3)ccc12` [Compound 69a, (2S,4R)-1-(2-(4-aminopyrrolo[2,1-f][1,2,4]triazin-7-yl)acetyl)-N-(6-bromopyridin-2-yl)-4-fluoropyrrolidine-2-carboxamide], for which the IC50 lay in the range of 100 to 1000 nM. As to `NCCNc1ncnc2c1ncn2CC(=O)N1C[C@H](F)C[C@H]1C(=O)NCc1cccc(Cl)c1F` [Compound 123g, (2S,4R)-1-(2-(6-((2-aminoethyl)amino)-9H-purin-9-yl)acetyl)-N-(3-chloro-2-fluorobenzyl)-4-fluoropyrrolidine-2-carboxamide], the IC50 is > 1000 nM. Regarding `Nc1ncnc2c1c1nc(-c3cccnc3)ccc1n2CC(=O)N1[C@@H]2C[C@@H]2C[C@H]1C(=O)Nc1cccc(Br)n1` [Compound 371c, (1R,3S,5R)-2-(2-(4-amino-6-(pyridin-3-yl)-9H-pyrido[2′,3′:4,5]pyrrolo[2,3-d]pyrimidin-9-yl)acetyl)-N-(6-bromopyridin-2-yl)-2-azabicyclo[3.1.0]hexane-3-carboxamide], the IC50 was in the range of 100 to 1000 nM. Under `Cc1ccc(Br)nc1NC(=O)[C@@H]1C[C@@]2(C)C[C@H]2N1C(=O)Cn1c2ccc(C(F)(F)F)cc2c2c(N)ncnc21` [Compound 11f, (1R,3S,5R)-2-(2-(4-amino-6-(trifluoromethyl)-9H-pyrimido[4,5-b]indol-9-yl)acetyl)-N-(6-bromo-3-methylpyridin-2-yl)-5-methyl-2-azabicyclo[3.1.0]hexane-3-carboxamide] stands < 100 nM.

Take `Cc1cc(C(F)(F)F)cc2c3c(N)ncnc3n(CC(=O)N3C[C@H](F)C[C@H]3C(=O)Nc3cccc(Br)n3)c12` [Compound 301a, (2S,4R)-1-(2-(4-amino-8-methyl-6-(trifluoromethyl)-9H-pyrimido[4,5-b]indol-9-yl)acetyl)-N-(6-bromopyridin-2-yl)-4-fluoropyrrolidine-2-carboxamide]: the IC50 was < 100 nM.

Consider `COc1cc2c(cc1C(F)(F)F)c1c(N)ncnc1n2CC(=O)N1[C@@H]2C[C@@H]2C[C@H]1C(=O)Nc1cccc(Br)n1` [Compound 367g, (1R,3S,5R)-2-(2-(4-amino-7-methoxy-6-(trifluoromethyl)-9H-pyrimido[4,5-b]indol-9-yl)acetyl)-N-(6-bromopyridin-2-yl)-2-azabicyclo[3.1.0]hexane-3-carboxamide], for which the IC50 was < 100 nM. In the case of `Nc1ncnc2c1c(-c1ccccc1Cl)cn2CC(=O)N1C[C@H](F)C[C@H]1C(=O)NCc1cccc(Cl)c1F` [Compound 136a, (2S,4R)-1-(2-(4-amino-5-(2-chlorophenyl)-7H-pyrrolo[2,3-d]pyrimidin-7-yl)acetyl)-N-(3-chloro-2-fluorobenzyl)-4-fluoropyrrolidine-2-carboxamide], the 50% inhibitory concentration (IC50) was > 1000 nM. Take `Nc1ncnc2c1ncn2CC(=O)N1C[C@H](F)C[C@H]1C(=O)NCc1cccc(Cl)c1F` [Compound 104a, (2S,4R)-1-(2-(6-amino-9H-purin-9-yl)acetyl)-N-(3-chloro-2-fluorobenzyl)-4-fluoropyrrolidine-2-carboxamide]: the IC50 is < 100 nM. As to `CC(O)c1ccc2c(c1)c1c(N)ncnc1n2CC(=O)N1[C@@H]2C[C@@H]2C[C@H]1C(=O)Nc1cccc(Br)n1` (stereo partly drawn) [Compound 170c, (1R,3S,5R)-2-(2-(4-amino-6-(1-hydroxyethyl)-9H-pyrimido[4,5-b]indol-9-yl)acetyl)-N-(6-bromopyridin-2-yl)-2-azabicyclo[3.1.0]hexane-3-carboxamide], the IC50 was < 100 nM.

Consider `Cc1cc(C(F)(F)F)cc2c3c(N)ncnc3n(CC(=O)N3C[C@](C)(F)C[C@H]3C(=O)Nc3cncc(Br)n3)c12` [Compound 305a, (2S,4R)-1-(2-(4-amino-8-methyl-6-(trifluoromethyl)-9H-pyrimido[4,5-b]indol-9-yl)acetyl)-N-(6-bromopyrazin-2-yl)-4-fluoro-4-methylpyrrolidine-2-carboxamide], for which the half-maximal inhibitory concentration (IC50) is < 100 nM. For `Nc1ncnc2c1ncn2CC(=O)N1[C@H](C(=O)NCc2cccc(Cl)c2F)C[C@@H]2C[C@@H]21` [Compound 109e, (1S,3S,5S)-2-(2-(6-amino-9H-purin-9-yl)acetyl)-N-(3-chloro-2-fluorobenzyl)-2-azabicyclo[3.1.0]hexane-3-carboxamide] the value was 100 to 1000 nM; for `C[C@@]12C[C@@H](C(=O)Nc3cccc(Br)n3)N(C(=O)Cn3c4ccc(C5CCCC5)cc4c4c(N)ncnc43)[C@@H]1C2` [Compound 338e, (1R,3S,5R)-2-(2-(4-amino-6-cyclopentyl-9H-pyrimido[4,5-b]indol-9-yl)acetyl)-N-(6-bromopyridin-2-yl)-5-methyl-2-azabicyclo[3.1.0]hexane-3-carboxamide], < 100 nM. As to `C[C@@]12C[C@@H](C(=O)Nc3cccc(Br)n3)N(C(=O)Cn3c4cc(-c5ccccc5)ccc4c4c(N)ncnc43)[C@@H]1C2` [Compound 228a, (1R,3S,5R)-2-(2-(4-amino-7-phenyl-9H-pyrimido[4,5-b]indol-9-yl)acetyl)-N-(6-bromopyridin-2-yl)-5-methyl-2-azabicyclo[3.1.0]hexane-3-carboxamide], the IC50 was < 100 nM. Under `CO[C@H]1C[C@@H](C(=O)Nc2cccc(Br)n2)N(C(=O)Cn2c3ccc(C(F)(F)F)cc3c3c(N)ncnc32)C1` [Compound 247d, (2S,4S)-1-(2-(4-amino-6-(trifluoromethyl)-9H-pyrimido[4,5-b]indol-9-yl)acetyl)-N-(6-bromopyridin-2-yl)-4-methoxypyrrolidine-2-carboxamide] stands 100 to 1000 nM.

For `Nc1ncnc2c1c1cc(-c3ccncc3)ccc1n2CC(=O)N1[C@@H]2C[C@@H]2C[C@H]1C(=O)Nc1cccc(Br)n1` [Compound 226c, (1R,3S,5R)-2-(2-(4-amino-6-(pyridin-4-yl)-9H-pyrimido[4,5-b]indol-9-yl)acetyl)-N-(6-bromopyridin-2-yl)-2-azabicyclo[3.1.0]hexane-3-carboxamide], the IC50 is < 100 nM.

With `Cc1ccc(Br)nc1NC(=O)[C@@H]1C[C@H]2C[C@H]2N1C(=O)Cc1ccc2c(N)ncnn12` [Compound 2d, (1R,3S,5R)-2-(2-(4-aminopyrrolo[2,1-f][1,2,4]triazin-7-yl)acetyl)-N-(6-bromo-3-methylpyridin-2-yl)-2-azabicyclo[3.1.0]hexane-3-carboxamide], the IC50 is > 1000 nM. Under `Cc1cc(-c2ccco2)cc2c3c(N)ncnc3n(CC(=O)N3[C@@H]4C[C@@H]4C[C@H]3C(=O)Nc3cccc(Br)n3)c12` [Compound 370a, (1R,3S,5R)-2-(2-(4-amino-6-(furan-2-yl)-8-methyl-9H-pyrimido[4,5-b]indol-9-yl)acetyl)-N-(6-bromopyridin-2-yl)-2-azabicyclo[3.1.0]hexane-3-carboxamide] stands < 100 nM; under `COc1cc(OC)c2c(c1)c1c(N)ncnc1n2CC(=O)N1[C@@H]2C[C@@H]2C[C@H]1C(=O)Nc1cccc(Br)n1` [Compound 278g, (1R,3S,5R)-2-(2-(4-amino-6,8-dimethoxy-9H-pyrimido[4,5-b]indol-9-yl)acetyl)-N-(6-bromopyridin-2-yl)-2-azabicyclo[3.1.0]hexane-3-carboxamide], < 100 nM. For the compound `Cc1ccnc2c3c(N)ncnc3n(CC(=O)N3[C@@H]4C[C@@H]4C[C@H]3C(=O)Nc3cccc(Br)n3)c12` [Compound 284a, (1R,3S,5R)-2-(2-(4-amino-8-methyl-9H-pyrido[2′,3′:4,5]pyrrolo[2,3-d]pyrimidin-9-yl)acetyl)-N-(6-bromopyridin-2-yl)-2-azabicyclo[3.1.0]hexane-3-carboxamide], the IC50 is < 100 nM. For `COC(=O)Nc1ccc2c(c1)c1c(N)ncnc1n2CC(=O)N1[C@@H]2C[C@@H]2C[C@H]1C(=O)Nc1cccc(Br)n1` [Compound 225e, methyl (4-amino-9-(2-((1R,3S,5R)-3-((6-bromopyridin-2-yl)carbamoyl)-2-azabicyclo[3.1.0]hexan-2-yl)-2-oxoethyl)-9H-pyrimido[4,5-b]indol-6-yl)carbamate] the value was < 100 nM; for `Nc1ncnc2c1c1ccccc1n2CC(=O)N1CCC[C@H]1C(=O)Nc1cccc(Br)n1` [Compound 13b, (S)-1-(2-(4-amino-9H-pyrimido[4,5-b]indol-9-yl)acetyl)-N-(6-bromopyridin-2-yl)pyrrolidine-2-carboxamide], 100 to 1000 nM; for `COc1cccc(NC(=O)[C@@H]2C[C@H]3C[C@H]3N2C(=O)Cn2cnc3c(N)ncnc32)c1F` [Compound 108b, (1R,3S,5R)-2-(2-(6-amino-9H-purin-9-yl)acetyl)-N-(2-fluoro-3-methoxyphenyl)-2-azabicyclo[3.1.0]hexane-3-carboxamide], > 1000 nM.

Usually IC50 stands for the point on the concentration scale where inhibition reaches its midpoint.
